For five compounds, IC50, LC25 and LC50 results are on record in ChEMBL document CHEMBL5226321, “Ivermectin: A Promising Therapeutic for Fighting Malaria. Current Status and Perspective” (J Med Chem, 2021).

By IC50 is commonly meant the concentration that inhibits the measured activity by half.

In experiment [1] the test system is Huh-7. The experiment can be described thus: Antimalarial activity against liver stage Plasmodium berghei infected in human Huh-7 cells assessed as inhibition by bioluminescence assay. The class given is functional, cell-based.
The subject of experiment [2] is Plasmodium falciparum. The experiment can be described thus: Antimalarial activity against asexual blood stage Plasmodium falciparum assessed as parasite growth inhibition incubated for 72 hrs by HRP2 - ELISA. Format: functional, organism-based.
For experiment [3], the system named is Plasmodium falciparum. The experiment in a line: Antimalarial activity against Plasmodium falciparum late stage IV-V gametocytes assessed as parasite growth inhibition incubated for 48 hrs by BacTiterGlo assay. The class given is functional, organism-based.
In experiment [4] the test system is Huh-7. The experiment in a line: Antiplasmodial activity against liver stage Plasmodium berghei infected in human Huh-7 cells assessed as inhibition of parasite infection incubated for 48 hrs by bioluminescence assay. Format: functional, cell-based.
In experiment [5] the test system is Plasmodium falciparum. The experiment in a line: Antimalarial activity against asexual blood stage chloroquine-sensitive Plasmodium falciparum 3d7 assessed as parasite growth inhibition by SYBR Green staining based fluorescence analysis. Format: functional, organism-based.
The nature of experiment [6]: Antimalarial activity against Plasmodium cynomolgi infected in rhesus macaque hepatocytes assessed as inhibition of liver-stage schizonts by Giemsa staining based microscopic analysis. The class given is functional, cell-based, Macaca mulatta. The note with it: hepatocyte.
The test system of experiment [7] is Plasmodium falciparum. The experiment in a line: Antiplasmodial activity against asexual blood stage Plasmodium falciparum 3d7 assessed as parasite growth inhibition incubated for 48 hrs by bioluminescence assay. The class given is functional, organism-based.
The test system of experiment [8] is Plasmodium falciparum. The experiment can be described thus: Antimalarial activity against asexual blood stage mefloquine-resistant Plasmodium falciparum Dd2 assessed as parasite growth inhibition by SYBR Green staining based fluorescence analysis. Format: functional, organism-based.
Experiment [9] relates to Plasmodium vivax. The experiment in a line: Antimalarial activity against Plasmodium vivax assessed as inhibition of sporogony in Anopheles sp. mosquito fed with blood containing plasma isolated from compound treated parasite-infected human observed after 7 days. Format: functional, organism-based.
The test system of experiment [10] is Plasmodium falciparum. The experiment in a line: Antimalarial activity against asexual blood stage chloroquine-resistant Plasmodium falciparum Dd2 assessed as parasite growth inhibition by SYBR Green staining based fluorescence analysis. The class given is functional, organism-based.
Experiment [11] concerns Anopheles gambiae. The experiment can be described thus: Insecticidal in Anopheles gambiae G3 assessed as sublethal dose re-blood fed on human arm. Format: functional.
Experiment [12] concerns Anopheles gambiae. The experiment in a line: Insecticidal in Anopheles gambiae G3 assessed as lethal concentration fed with compound treated human blood at 150 microg/kg administered once. The class given is functional. Particulars: dose 150 µg/kg.
The subject of experiment [13] is Anopheles stephensi. The experiment can be described thus: Insecticidal in Anopheles stephensi larvae measured after 48 hrs. Format: functional.
The subject of experiment [14] is Culex pipiens. The experiment can be described thus: Insecticidal in Culex pipiens larvae measured after 48 hrs. The class given is functional.
Experiment [15] deals with Aedes aegypti. The experiment can be described thus: Insecticidal in Aedes aegypti larvae measured after 48 hrs. Format: functional.

Converted amounts (≈) assume the structure as drawn.

As to `COc1cc(NC(C)CCCN)c2ncccc2c1` (configuration not stated) [PRIMAQUINE], the IC50 in experiment [1] (Homo sapiens, Huh-7) amounted to 2400 nM.
For IVERMECTIN, the half-maximal inhibitory concentration (IC50) was determined as 100 nM in experiment [2]; 500 nM in experiment [3]; 2100 nM in experiment [4]; 1560 nM in experiment [5]; 2100 nM in experiment [1] (huh-7); 10400 nM in [6]. Besides, the IC50 worked out at 1560 nM in experiment [7], 1920 nM in experiment [8], 0.00568 µg/mL in [9] and 2850 nM in experiment [10].
For `CCN(Cc1ccc(Cl)nc1)/C(=C/[N+](=O)[O-])NC` [NITENPYRAM], the LC25 in [11] worked out at 0.07865 µg/mL (≈ 0.291 µM). For the same compound, in experiment [12], the LC50 amounted to 0.111 µg/mL (≈ 0.41 µM).
As for `CO[C@H]1C[C@H](O[C@H]2[C@H](C)O[C@@H](O[C@@H]3/C(C)=C/C[C@@H]4C[C@@H](C[C@]5(C=C[C@H](C)[C@@H](C(C)C)O5)O4)OC(=O)[C@@H]4C=C(C)[C@@H](O)[C@H]5OC/C(=C\C=C\[C@@H]3C)[C@]54O)C[C@@H]2OC)O[C@@H](C)[C@@H]1O` [ABAMECTIN COMPONENT B1B], the LC50 in [13] came out at 2.9 ppb; in [14] it was 2.42 ppb; in experiment [15], 10.4 ppb.
`C=C(C)[C@H]1C(=O)c2c3c(cc4c5c(n1c24)C[C@@]1(C)C5CC[C@H]2[C@](C)(/C=C/C=C(\C)C(=O)NC(C)(C)C)[C@@H](O)CC[C@@]21C)C1=CC(C)(C)OC(C)(C)C1[C@@H]3O` (some centres not stated): the LC50 in [12] was 0.76 µg/mL (≈ 1.03 µM).
